The source of these data is ChEMBL document CHEMBL4706492, “[1,2,3]Triazolo[4,5-d]pyrimidine derivatives incorporating (thio)urea moiety as a novel scaffold for LSD1 inhibitors” (Eur J Med Chem, 2020).

By IC50 is commonly meant the concentration needed to halve the response being measured. A high value points to a need for much substance. As usually defined, the inhibition is how much of the control response was suppressed.

The subject of series [1] is PC-3. The experiment in a line: cells. As to conditions: Homo sapiens, PC-3, 48 h.
Description: Cytotoxicity against human PC-3 cells assessed as reduction in cell viability after 48 hrs by MTT assay
The target of series [2] is T1, Lysine-specific histone demethylase 1A (Homo sapiens, UniProt O60341).
For series [3], the target named is T2, MAO-B (Homo sapiens, UniProt P27338).
T2 sequence (P27338 whole entry): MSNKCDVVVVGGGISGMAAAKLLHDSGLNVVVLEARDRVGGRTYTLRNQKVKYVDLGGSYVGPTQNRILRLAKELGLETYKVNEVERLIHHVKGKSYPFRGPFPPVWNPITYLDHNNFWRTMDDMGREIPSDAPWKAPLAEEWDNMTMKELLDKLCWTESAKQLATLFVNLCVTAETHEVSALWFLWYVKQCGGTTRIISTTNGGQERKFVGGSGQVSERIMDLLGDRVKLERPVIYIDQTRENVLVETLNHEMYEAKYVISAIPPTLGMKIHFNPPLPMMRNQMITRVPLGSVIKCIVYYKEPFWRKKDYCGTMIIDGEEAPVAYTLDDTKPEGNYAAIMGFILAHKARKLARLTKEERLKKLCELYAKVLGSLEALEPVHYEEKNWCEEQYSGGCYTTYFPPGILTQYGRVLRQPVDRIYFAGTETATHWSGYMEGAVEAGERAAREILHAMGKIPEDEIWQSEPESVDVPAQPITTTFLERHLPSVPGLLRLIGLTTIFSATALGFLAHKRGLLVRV
The experiment in a line: Inhibition of MAO-B (unknown origin) at 20 uM relative to control.

The target in series [4] is T1, Lysine-specific histone demethylase 1A. As to the kind of experiment: Inhibition of LSD1 in human MGC803 assessed as reduction in H3K4me2 protein expression incubated for 24 hrs by Western blot analysis. As to conditions: MGC-803, dose 10-40 µM. In general terms: In western blotting, separated proteins are transferred to a membrane and probed.
Series [5] deals with Cyclin-dependent kinase 6 (Homo sapiens) (UniProt Q00534). The experiment in a line: Inhibition of CDK6 (unknown origin) at 20 uM relative to control.
Chain of Cyclin-dependent kinase 6 (Homo sapiens) (Q00534 whole entry): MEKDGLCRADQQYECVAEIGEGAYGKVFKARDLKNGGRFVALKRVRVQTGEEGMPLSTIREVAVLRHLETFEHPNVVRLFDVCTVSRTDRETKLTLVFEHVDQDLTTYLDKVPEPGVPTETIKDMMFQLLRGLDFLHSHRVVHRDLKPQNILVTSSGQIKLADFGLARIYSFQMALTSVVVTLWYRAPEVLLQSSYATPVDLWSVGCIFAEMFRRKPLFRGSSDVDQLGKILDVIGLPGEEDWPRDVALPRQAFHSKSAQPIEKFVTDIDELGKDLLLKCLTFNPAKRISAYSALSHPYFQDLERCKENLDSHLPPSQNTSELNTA
Series [6] deals with ECa-109 cell line. As to the kind of experiment: cells. As to conditions: Homo sapiens, ECa-109, 48 h.
Description: Cytotoxicity against human EC-109 cells assessed as reduction in cell viability after 48 hrs by MTT assay
Series [7] concerns B16-F10. The experiment in a line: cells. The conditions noted are these: Mus musculus, B16-F10, 48 h.
Description: Cytotoxicity against mouse B16-F10 cells assessed as reduction in cell viability after 48 hrs by MTT assay
Series [8] deals with T3, MAO-A (Homo sapiens, UniProt P21397).
T3 sequence (P21397 whole entry): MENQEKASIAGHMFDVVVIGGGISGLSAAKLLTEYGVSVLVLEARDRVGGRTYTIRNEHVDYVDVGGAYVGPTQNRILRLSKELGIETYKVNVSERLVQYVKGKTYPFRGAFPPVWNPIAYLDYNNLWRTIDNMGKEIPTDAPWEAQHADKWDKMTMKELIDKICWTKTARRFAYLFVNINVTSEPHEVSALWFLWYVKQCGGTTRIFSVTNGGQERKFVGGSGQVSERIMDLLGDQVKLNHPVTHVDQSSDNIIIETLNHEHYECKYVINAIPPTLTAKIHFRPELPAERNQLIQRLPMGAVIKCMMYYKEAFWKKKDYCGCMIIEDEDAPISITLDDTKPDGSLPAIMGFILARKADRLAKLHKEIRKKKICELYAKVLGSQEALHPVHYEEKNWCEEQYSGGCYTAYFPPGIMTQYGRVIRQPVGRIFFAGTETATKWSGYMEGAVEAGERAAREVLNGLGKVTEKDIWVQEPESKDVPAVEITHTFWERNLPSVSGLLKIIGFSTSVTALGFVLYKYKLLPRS
As to the kind of experiment: Inhibition of MAO-A (unknown origin) at 20 uM relative to control.

In series [9] the test system is MGC-803. As to the kind of experiment: cells. As to conditions: Homo sapiens, MGC-803, 48 h.
Description: Cytotoxicity against human MGC-803 cells assessed as reduction in cell viability after 48 hrs by MTT assay
For series [10], the target named is Cyclin-dependent kinase 1 (Homo sapiens) (UniProt P06493). As to the kind of experiment: Inhibition of CDK1 (unknown origin) at 20 uM relative to control.
Chain of Cyclin-dependent kinase 1 (Homo sapiens) (P06493 whole entry, looked up): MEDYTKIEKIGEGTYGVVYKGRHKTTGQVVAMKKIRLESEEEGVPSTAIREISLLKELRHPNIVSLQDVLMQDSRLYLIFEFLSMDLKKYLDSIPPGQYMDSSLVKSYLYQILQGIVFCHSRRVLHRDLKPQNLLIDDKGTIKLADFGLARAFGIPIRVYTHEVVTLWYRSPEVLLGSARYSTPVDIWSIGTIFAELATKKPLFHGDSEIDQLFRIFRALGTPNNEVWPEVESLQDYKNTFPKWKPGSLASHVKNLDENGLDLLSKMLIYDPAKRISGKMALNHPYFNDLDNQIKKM
Series [11] has as its target Cyclin-dependent kinase 2 (Homo sapiens) (UniProt P24941). As to the kind of experiment: Inhibition of CDK2 (unknown origin) at 20 uM relative to control.
Series [12] has as its target T1, Lysine-specific histone demethylase 1A. As to the kind of experiment: biochemical.
Description: Inhibition of recombinant human LSD1 (157 to 852 residues) expressed in Escherichia coli BL21 (DE) cells using H3K4me2 substrate incubated for 30 mins by amplex red assay
Series [13] addresses Tyrosine-protein kinase BTK (Homo sapiens) (UniProt Q06187). As to the kind of experiment: Inhibition of BTK (unknown origin) at 20 uM relative to control.

SMILES strings stand for the structures.

Chain of Tyrosine-protein kinase BTK (Homo sapiens) (Q06187 whole entry): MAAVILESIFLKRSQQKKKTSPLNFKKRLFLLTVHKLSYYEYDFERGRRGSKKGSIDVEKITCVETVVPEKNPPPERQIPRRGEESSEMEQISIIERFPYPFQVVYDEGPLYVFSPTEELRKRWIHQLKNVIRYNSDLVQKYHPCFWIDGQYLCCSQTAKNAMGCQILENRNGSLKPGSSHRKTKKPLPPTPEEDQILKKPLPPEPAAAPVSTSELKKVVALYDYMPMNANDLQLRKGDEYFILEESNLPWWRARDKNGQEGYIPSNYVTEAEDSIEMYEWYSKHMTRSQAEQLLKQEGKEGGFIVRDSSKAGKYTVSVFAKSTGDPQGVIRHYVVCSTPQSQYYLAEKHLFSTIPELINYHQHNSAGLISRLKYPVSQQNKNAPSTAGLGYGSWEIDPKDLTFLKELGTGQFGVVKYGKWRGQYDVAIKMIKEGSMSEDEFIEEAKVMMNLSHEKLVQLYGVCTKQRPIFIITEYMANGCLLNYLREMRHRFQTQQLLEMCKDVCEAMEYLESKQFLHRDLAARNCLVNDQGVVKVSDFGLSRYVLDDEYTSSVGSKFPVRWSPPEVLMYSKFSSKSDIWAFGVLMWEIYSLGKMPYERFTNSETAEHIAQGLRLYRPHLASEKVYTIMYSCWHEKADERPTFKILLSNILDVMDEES

With `CCCSc1nc2c(nnn2CCNC(=S)Nc2cccc3ccccc23)c(=O)[nH]1`, the IC50 was determined as 9.15 µM in series [1]; 9.88 µM in series [6]; 11.5 µM in series [7]; 8.3 µM in series [9]; 9.75 µM in [12]. Moreover, the Ratio IC50 in series [2] worked out at 3. Further, the results for the inhibition at 20 µM in series [3] and in series [8] were 11.8% and 3.9%, respectively. Further, the inhibition entry in series [4] is “Dose-dependent effect”; in [5], 20%; in series [10], below 10%; in [11] it was below 10%; in [13], below 10%.

On to `CCCSc1nc2c(nnn2CCNC(=S)Nc2ccc(OC)cc2)c(=O)[nH]1`, for which the 50% inhibitory concentration (IC50) in series [1] was 15.6 µM; in series [6], 19.7 µM; in series [7] it was above 64 µM; in series [9] it was 20.7 µM.

As to `CCCSc1nc2c(nnn2CCNC(=S)Nc2ccccc2Cl)c(=O)[nH]1`, the IC50 in series [1] was 23.4 µM; in series [6] it was above 64 µM; in [7], 14.2 µM; in series [9] it was 26 µM.

As for `CCCSc1nc2c(nnn2CCNC(=S)NCc2ccccc2)c(=O)[nH]1`, the 50% inhibitory concentration (IC50) in series [1] was 25.5 µM; in [6], above 64 µM; in series [7], above 64 µM; in series [9] it was 46.3 µM.
